Assay type in all cases: physicochemical
The nature of data set [1]: Antioxidant activity assessed as ONOO- scavenging activity.
Data set [2] is described as follows: Antioxidant activity assessed as DPPH free radical scavenging activity.
Data set [3] in a line: Antioxidant activity assessed as DPPH free radical scavenging activity using plasma treated compound.
Data set [4] can be described thus: Antioxidant activity assessed as ONOO- scavenging activity using plasma treated compound.

Regarding `CC(C)(S)[C@H](N)C(=O)O`, in data set [1], the IC50 turned out to be 5.2 µM.

Turning to `C[C@H]1O[C@@H](O[C@H]2[C@H](Oc3cc(O)c4c(c3)O[C@H](c3ccc(O)cc3)CC4=O)O[C@H](CO)[C@@H](O)[C@@H]2O)[C@H](O)[C@@H](O)[C@@H]1O`, the IC50 in data set [2] and in data set [1] was > 300 µM throughout.

Turning to `COCO[C@H]1[C@H](O)[C@@H](O[C@@H]2O[C@H](C)[C@@H](O)[C@H](O)[C@H]2O)[C@H](Oc2cc(O)c3c(c2)O[C@@H](c2ccc(O)cc2)CC3=O)O[C@@H]1CO`, the IC50 worked out at 57.3 µM in data set [2] and 4.1 µM in data set [1].

Regarding `COCO[C@H]1[C@H](O)[C@@H](O)[C@H](O[C@H]2[C@H](Oc3cc(O)c4c(c3)O[C@H](c3ccc(O)cc3)CC4=O)O[C@H](CO)[C@@H](O)[C@@H]2O)O[C@@H]1C`, the figures for the IC50 in data set [2] and in data set [1] were 148 µM and 256 µM, respectively.

With `C[C@H]1O[C@@H](O[C@H]2[C@H](Oc3cc(O)c4c(c3)O[C@@H](c3ccc(O)cc3)CC4=O)O[C@H](CO)[C@@H](O)[C@@H]2O)[C@H](O)[C@@H](O)[C@@H]1O`, the IC50 was 93.8 µM in data set [2] and > 300 µM in data set [1].

For `Oc1cc(O)c2c(c1)O[C@H](c1ccc(O)c(O)c1)[C@@H](O)C2` [CIANIDANOL], in data set [2], the IC50 was found to be 23.9 µM.

As to `C[C@@H]1O[C@@H](O[C@H]2[C@H](Oc3cc(O)c4c(c3)O[C@H](c3ccc(O)cc3)CC4=O)O[C@H](CO)[C@@H](O)[C@@H]2O)[C@H](O)[C@H](O)[C@H]1O` [NARINGIN], the IC50 in data set [3] was 110 µM; in data set [4] it was 15.6 µM.

The values above are taken from ChEMBL document CHEMBL3397019, “Enhancement of antioxidant effects of naringin after atmospheric pressure dielectric barrier discharge plasma treatment” (Bioorg Med Chem Lett, 2015).
